Data on one molecule can be found in patent publication US20240197816A1, “COMPOSITION AND METHOD FOR PROLONG SURVIVAL OF TRANSPLANT AND RECIPIENT” (NovMetaPharma Co., Ltd., priority 2022, published 2024).

The subject of assay [1] is transplanted kidney (F344 to LEWIS rats). The assay is described as follows: Weekly ultrasound (color Doppler) of blood flow to the transplanted kidney. The format is in vivo, rat. The conditions noted are these: CHP treatment group, ultrasound once a week. Here is the method:
In the control group, CHP administration group (F344 to LEWIS rats), and inbred (LEWIS to LEWIS rats) kidney transplantation model, ultrasound was performed once a week to check the smooth flow of blood to the transplanted kidney.

The test system of assay [2] is transplanted kidney; Nrf2. Description: PAS and Nrf2 immunohistochemistry of transplanted kidney five days after transplantation. It counts as in vivo, rat. From the text:
All animals were sacrificed at five days from post-kidney transplantation. The administration of CHP to the transplant recipient group decreased tubular atrophy, tubulitis, endothelialitis, leukocyte infiltration, while increasing the level of antioxidative stress marker Nrf2 (Nuclear factor erythroid-2-related factor). These findings highlight the potential of CHP to exert protective (e.g., anti-inflammatory and antioxidative) effects in the transplantation rat model.

The subject of assay [3] is transplanted kidney (F344 to LEWIS rats). Description: Graft kidney tissue findings (histology). The conditions noted are these: TPL+CHP group; graft tissue on the 45th day. The format is in vivo, rat. From the text: These phenomena are believed to be an effect of CHP that can suppress the acute rejection reaction that occurs within days after transplantation. In FIG. 5, graft kidney tissue findings on the 7th day of rejection in the left […] control group (Syngenic TPL) and on the 45th day in the CHP treated group (TPL+CHP).

The test system of assay [4] is F344 donor kidney transplanted into LEWIS rats. Description: Survival of recipients in rat allogeneic kidney transplantation, minor MHC incompatible model. It counts as in vivo. The conditions noted are these: CHP 40 mg/kg i.v. 1 hour before transplantation, then 40 mg/kg i.p. three times a week, n=4, untreated control 9 days (n=7). On the procedure: Donor surgery: After removing abdominal hair from donor rat under general anesthesia, the surgical area was disinfected and covered with surgical cloth. After a midline incision in the abdominal wall, one kidney was exposed, and 8 iu/kg of heparin was administered intravenously, followed by nephrectomy.
Table Surgery: Removed unnecessary tissue to anastomosis the artery, vein, and ureter of the extracted kidney to the blood vessel and ureter of the recipient, and covered and stored with gauze soaked in saline at 4° C.
Recipient surgery: After removal of abdominal hair of recipient rat under general anesthesia, the surgical area was disinfected and covered with surgical cloth. After a midline incision in the abdominal wall, the right kidney was exposed, the kidney was resected, and the donor renal artery and vein were anastomized end to side to the […]. The ureter of donor's kidney was sutured after incising the bladder. After confirming that the perfusion of the kidney was good (FIG. 1), the abdominal wall was closed, and the animal was placed on a blanket at 37° C. to recover.
As a minor MHC incompatible model, a kidney transplantation model F344 rats were used as donors and LEWIS rats were used as recipients. After resection of the recipients' right kidney on Day 0 (DO), the donors' kidney was transplanted into the recipients. […]

The subject of assay [5] is transplanted kidney (F344 to LEWIS rats). Description: Evaluation of graft function (BUN, serum creatinine) after kidney transplantation. It counts as in vivo, rat. The source says:
Individual data points represent the following groups: the syngeneic transplant recipients (Syngenic; n=3), transplant recipients without CHP administration (TPL; n=5), and the CHP-treated transplant recipients (TPL+CHP; n=5). […] This significant improvement in key renal function indicators highlights a promising advancement in post-transplant care, reducing the reliance on immunosuppressive therapies, and prolonging recipient survival and enhancing graft survival.

Take `O=C1N[C@@H](Cc2cnc[nH]2)C(=O)N2CCC[C@@H]12` [CHP, Cyclo histidine-proline]: the “blood flow to the transplanted kidney (ultrasound)” value in assay [1] is recorded as “blood flow to the kidney was smooth”. The “level of antioxidative stress marker Nrf2” value in assay [2] (Nrf2 immunohistochemistry) was “increasing”. The “tubular atrophy, tubulitis, endothelialitis, leukocyte infiltration” value in assay [2] (PAS staining) was “decreased”. Also, in assay [3], the “borderline changes suggestive of acute cell-mediated rejection and microvascular inflammation” value is “rapidly decreased”; the “focal glomerular necrosis and severe tubulointerstitial changes” value is recorded as “decrease”. Further, the “mean survival day (SMD)” value in assay [4] is reported as 326 days. Besides, the “function of the grafted organ” value in assay [5] (CHP-treated animals, entire period of survival, weekly measurements over 46 weeks) is given as “fully function”. Moreover, the serum creatinine in assay [5] (TPL+CHP group at 3 weeks after transplantation, syngenic group 0.71 mg/dL) came to 0.82 mg/dL. In assay [5] (five days post-transplantation, TPL+CHP n=5, TPL without CHP 7.23±0.39, p<0.0001), the serum creatinine levels was found to be 1.32 ± 0.13 mg/dL. For the same molecule, the “blood urea nitrogen (BUN)” value in assay [5] (five days post-transplantation, TPL+CHP n=5, TPL without CHP 193.5±8.54, p<0.0001) is 41.98 ± 5.69 mg/dL.
